{"source": "paper PMC3703287", "about": "“Analgesic effect of a mixed T-type channel inhibitor/CB2 receptor agonist” (Molecular Pain, 2013)", "key": {"CaV3.1": {"target": "T1, CaV3.1 (Homo sapiens, UniProt O43497)", "T1 construct": "gene CACNA1G; α1 subunit", "T1 sequence (O43497 whole entry)": "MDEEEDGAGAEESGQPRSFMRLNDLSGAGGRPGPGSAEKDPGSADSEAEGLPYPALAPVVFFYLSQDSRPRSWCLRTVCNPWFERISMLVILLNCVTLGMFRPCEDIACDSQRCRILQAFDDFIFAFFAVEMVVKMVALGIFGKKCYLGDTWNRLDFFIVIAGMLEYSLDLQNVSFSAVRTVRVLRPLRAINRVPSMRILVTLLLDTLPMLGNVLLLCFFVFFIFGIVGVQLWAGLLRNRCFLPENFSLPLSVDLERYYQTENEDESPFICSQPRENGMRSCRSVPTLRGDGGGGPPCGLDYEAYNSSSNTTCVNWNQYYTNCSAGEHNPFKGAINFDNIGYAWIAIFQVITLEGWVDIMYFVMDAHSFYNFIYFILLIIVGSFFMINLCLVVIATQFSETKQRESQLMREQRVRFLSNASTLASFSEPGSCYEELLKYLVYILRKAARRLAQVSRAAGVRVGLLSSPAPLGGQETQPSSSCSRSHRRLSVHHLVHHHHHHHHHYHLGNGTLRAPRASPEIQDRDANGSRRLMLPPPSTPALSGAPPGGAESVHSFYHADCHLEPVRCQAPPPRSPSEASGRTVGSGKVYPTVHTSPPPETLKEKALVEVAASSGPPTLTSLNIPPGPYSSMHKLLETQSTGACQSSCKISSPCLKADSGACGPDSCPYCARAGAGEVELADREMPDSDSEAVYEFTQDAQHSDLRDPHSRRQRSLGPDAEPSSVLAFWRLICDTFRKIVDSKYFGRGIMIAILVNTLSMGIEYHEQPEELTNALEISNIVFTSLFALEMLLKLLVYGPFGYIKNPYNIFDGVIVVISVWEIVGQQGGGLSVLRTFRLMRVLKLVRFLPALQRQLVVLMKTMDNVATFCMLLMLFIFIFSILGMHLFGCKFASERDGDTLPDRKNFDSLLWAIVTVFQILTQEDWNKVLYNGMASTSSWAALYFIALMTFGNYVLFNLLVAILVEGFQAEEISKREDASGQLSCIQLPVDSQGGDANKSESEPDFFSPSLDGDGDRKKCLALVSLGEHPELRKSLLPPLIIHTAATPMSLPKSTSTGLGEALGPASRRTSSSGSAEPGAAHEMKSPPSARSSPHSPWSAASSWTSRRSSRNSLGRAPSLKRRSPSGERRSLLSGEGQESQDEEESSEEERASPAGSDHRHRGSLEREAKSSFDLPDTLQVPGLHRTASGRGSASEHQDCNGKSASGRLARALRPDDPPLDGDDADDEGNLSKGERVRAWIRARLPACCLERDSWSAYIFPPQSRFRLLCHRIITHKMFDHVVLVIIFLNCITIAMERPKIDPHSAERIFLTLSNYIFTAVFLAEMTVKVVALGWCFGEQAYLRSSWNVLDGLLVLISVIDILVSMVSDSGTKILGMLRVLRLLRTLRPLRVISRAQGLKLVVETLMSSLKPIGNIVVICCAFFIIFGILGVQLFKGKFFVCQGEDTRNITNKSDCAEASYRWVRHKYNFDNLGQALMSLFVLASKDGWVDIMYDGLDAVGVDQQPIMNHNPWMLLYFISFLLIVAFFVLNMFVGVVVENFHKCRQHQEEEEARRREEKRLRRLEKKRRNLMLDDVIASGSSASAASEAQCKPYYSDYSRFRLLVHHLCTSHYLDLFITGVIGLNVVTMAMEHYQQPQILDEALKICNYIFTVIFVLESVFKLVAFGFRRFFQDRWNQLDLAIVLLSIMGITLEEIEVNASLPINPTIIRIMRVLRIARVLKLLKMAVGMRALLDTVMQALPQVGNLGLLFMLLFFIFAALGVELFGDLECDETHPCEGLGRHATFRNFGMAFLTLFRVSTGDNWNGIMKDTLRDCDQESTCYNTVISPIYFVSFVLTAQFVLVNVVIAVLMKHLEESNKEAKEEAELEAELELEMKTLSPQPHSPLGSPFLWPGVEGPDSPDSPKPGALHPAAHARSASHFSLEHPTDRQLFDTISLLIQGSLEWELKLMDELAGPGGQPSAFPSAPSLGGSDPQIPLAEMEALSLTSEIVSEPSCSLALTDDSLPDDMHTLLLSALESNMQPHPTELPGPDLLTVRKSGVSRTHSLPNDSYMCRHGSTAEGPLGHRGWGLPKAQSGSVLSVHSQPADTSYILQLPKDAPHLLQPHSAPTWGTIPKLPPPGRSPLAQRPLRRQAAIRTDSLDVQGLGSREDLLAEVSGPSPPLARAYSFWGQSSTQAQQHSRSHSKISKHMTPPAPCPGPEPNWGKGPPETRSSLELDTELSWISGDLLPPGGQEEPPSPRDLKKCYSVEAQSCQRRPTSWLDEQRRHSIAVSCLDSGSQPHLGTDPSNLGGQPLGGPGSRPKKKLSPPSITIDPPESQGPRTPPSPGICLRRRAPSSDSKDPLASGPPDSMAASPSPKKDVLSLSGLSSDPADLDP", "assay": "whole-cell patch clamp, […] NMP-181, tsA-201 cells transiently expressing human CaV3.[…]", "assay_type": "cell-based"}, "human CB2 receptor": {"target": "T2, human CB2 receptor (Homo sapiens, UniProt P34972)", "T2 construct": "gene CNR2", "T2 sequence (P34972 whole entry)": "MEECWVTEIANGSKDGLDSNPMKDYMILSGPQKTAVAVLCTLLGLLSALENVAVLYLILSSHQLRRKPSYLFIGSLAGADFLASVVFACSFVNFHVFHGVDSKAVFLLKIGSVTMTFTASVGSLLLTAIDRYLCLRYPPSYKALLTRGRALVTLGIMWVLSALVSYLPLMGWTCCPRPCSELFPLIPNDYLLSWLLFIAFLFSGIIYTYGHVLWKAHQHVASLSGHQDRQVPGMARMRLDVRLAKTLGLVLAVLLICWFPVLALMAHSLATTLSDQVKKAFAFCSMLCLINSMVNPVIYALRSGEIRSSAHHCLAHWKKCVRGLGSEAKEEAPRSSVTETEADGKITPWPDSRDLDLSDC", "assay": "[3H]CP55940 radioligand competition, membranes of HEK293 cells expressing human CB2; low-efficacy agonist in GTPγ[…] assay ([…] at […])", "assay_type": "binding"}, "CaV3.2": {"target": "T3, CaV3.2 (Homo sapiens, UniProt O95180)", "T3 construct": "gene CACNA1H; α1 subunit", "T3 sequence (O95180 whole entry)": "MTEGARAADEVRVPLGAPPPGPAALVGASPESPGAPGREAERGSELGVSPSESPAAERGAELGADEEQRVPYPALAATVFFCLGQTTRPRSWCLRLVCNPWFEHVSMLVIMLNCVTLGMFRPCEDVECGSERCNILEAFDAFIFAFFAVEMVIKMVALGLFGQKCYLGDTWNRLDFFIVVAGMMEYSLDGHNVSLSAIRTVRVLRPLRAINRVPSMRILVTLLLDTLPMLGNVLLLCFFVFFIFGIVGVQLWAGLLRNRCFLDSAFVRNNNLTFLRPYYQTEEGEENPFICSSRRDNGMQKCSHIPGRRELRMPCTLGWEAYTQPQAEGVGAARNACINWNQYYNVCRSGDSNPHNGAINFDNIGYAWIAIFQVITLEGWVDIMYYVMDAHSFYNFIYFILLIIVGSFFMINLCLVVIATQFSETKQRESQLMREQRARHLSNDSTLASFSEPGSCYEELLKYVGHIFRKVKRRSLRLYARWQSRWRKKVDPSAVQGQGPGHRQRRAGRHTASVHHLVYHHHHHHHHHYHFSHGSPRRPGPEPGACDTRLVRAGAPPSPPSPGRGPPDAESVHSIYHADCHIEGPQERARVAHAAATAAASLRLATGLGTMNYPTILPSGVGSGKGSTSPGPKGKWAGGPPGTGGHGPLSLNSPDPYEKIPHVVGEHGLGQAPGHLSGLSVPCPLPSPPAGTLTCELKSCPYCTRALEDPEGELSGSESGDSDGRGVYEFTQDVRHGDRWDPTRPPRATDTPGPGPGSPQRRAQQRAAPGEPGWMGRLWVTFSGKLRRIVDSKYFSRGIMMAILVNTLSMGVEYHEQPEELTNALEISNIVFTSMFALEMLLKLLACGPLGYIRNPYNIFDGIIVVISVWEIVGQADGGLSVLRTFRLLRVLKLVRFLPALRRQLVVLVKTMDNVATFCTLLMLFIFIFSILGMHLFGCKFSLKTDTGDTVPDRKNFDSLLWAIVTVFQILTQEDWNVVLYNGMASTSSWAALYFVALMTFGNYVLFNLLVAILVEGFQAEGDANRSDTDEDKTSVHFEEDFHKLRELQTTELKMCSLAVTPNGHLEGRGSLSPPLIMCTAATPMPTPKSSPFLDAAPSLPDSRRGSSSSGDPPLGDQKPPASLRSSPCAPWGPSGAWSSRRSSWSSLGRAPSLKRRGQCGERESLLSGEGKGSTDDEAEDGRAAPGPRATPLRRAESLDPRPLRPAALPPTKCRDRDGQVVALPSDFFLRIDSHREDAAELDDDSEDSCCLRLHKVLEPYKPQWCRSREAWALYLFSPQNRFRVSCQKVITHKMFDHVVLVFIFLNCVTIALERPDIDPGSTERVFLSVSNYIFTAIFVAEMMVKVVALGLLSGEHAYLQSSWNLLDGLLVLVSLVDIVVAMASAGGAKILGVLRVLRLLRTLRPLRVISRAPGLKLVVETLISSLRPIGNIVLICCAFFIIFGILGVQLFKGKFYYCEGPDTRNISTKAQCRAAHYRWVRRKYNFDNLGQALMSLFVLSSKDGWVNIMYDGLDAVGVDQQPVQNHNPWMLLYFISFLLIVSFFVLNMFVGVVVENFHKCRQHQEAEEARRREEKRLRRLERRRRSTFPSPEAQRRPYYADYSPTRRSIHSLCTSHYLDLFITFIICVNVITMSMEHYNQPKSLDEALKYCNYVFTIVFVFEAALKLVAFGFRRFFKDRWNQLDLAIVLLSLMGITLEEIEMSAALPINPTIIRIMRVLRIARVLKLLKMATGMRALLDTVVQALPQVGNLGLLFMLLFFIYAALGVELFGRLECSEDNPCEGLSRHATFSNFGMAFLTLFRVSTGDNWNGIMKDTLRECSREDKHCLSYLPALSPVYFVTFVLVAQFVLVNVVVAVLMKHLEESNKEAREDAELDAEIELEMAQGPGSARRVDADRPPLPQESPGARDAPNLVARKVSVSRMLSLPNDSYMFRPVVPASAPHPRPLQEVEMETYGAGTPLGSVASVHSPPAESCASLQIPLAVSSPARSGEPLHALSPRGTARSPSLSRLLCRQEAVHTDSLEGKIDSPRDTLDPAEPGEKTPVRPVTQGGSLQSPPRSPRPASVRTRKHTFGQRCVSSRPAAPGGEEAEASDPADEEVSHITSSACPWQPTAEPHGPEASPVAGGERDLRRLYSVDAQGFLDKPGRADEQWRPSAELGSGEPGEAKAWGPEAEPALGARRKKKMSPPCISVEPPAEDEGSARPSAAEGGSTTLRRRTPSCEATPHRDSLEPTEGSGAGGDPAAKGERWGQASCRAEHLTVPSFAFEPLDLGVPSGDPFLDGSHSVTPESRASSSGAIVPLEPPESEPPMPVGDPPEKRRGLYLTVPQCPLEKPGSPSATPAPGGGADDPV", "assay": "whole-cell patch clamp, tsA-201 cells transiently expressing human CaV3.[…]", "assay_type": "cell-based"}}}
{"smiles": "CCCCCn1c2ccccc2c2cc(C(=O)OCCN(C)C)ccc21", "note": "[NMP-181]", "values": [{"measurement": "whole-cell patch clamp, 10 μM NMP-181, tsA-201 cells transiently expressing huma", "setting": "CaV3.1", "result": "the degree of inhibition was similar for all three CaV3 isoforms"}, {"measurement": "Ki", "setting": "human CB2 receptor", "result": "123 ± 28", "unit": "nM"}, {"measurement": "IC50", "setting": "CaV3.2", "result": 4600, "unit": "nM"}]}
